Experimental data from ChEMBL document CHEMBL1140827, “From rigid cyclic templates to conformationally stabilized acyclic scaffolds. Part II: Acyclic replacements for the (3S)-3-benzylpiperidine in a series of potent CCR3 antagonists” (Bioorg Med Chem Lett, 2008).

Legend:
[1] = target: T1, C-C chemokine receptor type 3 (Homo sapiens, UniProt P51677); assay: Displacement of [125I] eotaxin from human CCR3 receptor in CHO cells; type: cell-based
T1 sequence (P51677 whole entry): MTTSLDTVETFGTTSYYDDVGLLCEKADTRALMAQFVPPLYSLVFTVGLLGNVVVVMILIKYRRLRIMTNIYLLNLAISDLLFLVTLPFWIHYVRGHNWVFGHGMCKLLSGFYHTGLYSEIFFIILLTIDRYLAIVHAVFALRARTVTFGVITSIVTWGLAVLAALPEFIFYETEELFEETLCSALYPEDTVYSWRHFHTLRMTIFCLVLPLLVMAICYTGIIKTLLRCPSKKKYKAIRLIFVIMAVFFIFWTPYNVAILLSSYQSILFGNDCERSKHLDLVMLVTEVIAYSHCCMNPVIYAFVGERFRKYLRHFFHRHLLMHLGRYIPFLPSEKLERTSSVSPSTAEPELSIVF

[2] = target: T2, C-C chemokine receptor type 3 (Homo sapiens) (UniProt P51677); assay: Antagonist activity at human CCR3 receptor assessed as inhibition of chemotaxis in eosinophil at 3 nM; type: functional; design: scale not given: the % may be the effect or the level left
T2 sequence (whole entry): T1 sequence (P51677 whole entry)

[3] = target: C-C chemokine receptor type 3 (Homo sapiens, UniProt P51677); assay: Displacement of [125I] eotaxin from human CCR3/CCR2 chimeric receptor in CHO cells; type: cell-based
[4] = target: T2, C-C chemokine receptor type 3 (Homo sapiens); assay: Antagonist activity at human CCR3 receptor assessed as inhibition of chemotaxis in eosinophil at 30 nM; type: functional; design: scale not given: the % may be the effect or the level left
[5] = target: T2, C-C chemokine receptor type 3 (Homo sapiens); assay: Antagonist activity at human CCR3 receptor assessed as inhibition of chemotaxis in eosinophil at 0.3 nM; type: functional; design: scale not given: the % may be the effect or the level left
[6] = target: T2, C-C chemokine receptor type 3 (Homo sapiens); assay: Antagonist activity at human CCR3 receptor assessed as inhibition of chemotaxis in eosinophil at 0.03 nM; type: functional; design: scale not given: the % may be the effect or the level left

Row | IC50 [1] | SMILES | also measured
1 | 0.4 nM | CCc1cc(NC(=O)N[C@H](C)[C@@H](O)CN(CC)CCCc2ccc(F)cc2)cc(-c2nnnn2C)c1 (stereo in doubt; 5b) | 
2 | 2.5 nM | C[C@@H](NC(=O)Nc1cccc(-c2nnnn2C)c1)[C@@H](O)CN(CCCc1ccc(F)cc1)C1CCCCC1 | 
3 | 0.2 nM | CCCN(CCCc1ccc(F)cc1)C[C@H](O)[C@@H](C)NC(=O)Nc1cccc(-c2nnnn2C)c1 | Activity [2]: 43%
4 | 0.3 nM | C[C@@H](NC(=O)Nc1cccc(-c2nnnn2C)c1)[C@@H](O)CN1CCC[C@@H](Cc2ccc(F)cc2)C1 | IC50 [3]: 0.4 nM
5 | 59 nM | C[C@@H](NC(=O)Nc1cccc(-c2nnnn2C)c1)[C@@H](O)CN(CCCc1ccc(F)cc1)CC(F)(F)F | 
6 | 0.5 nM | CCCN(CCCc1ccc(F)cc1)C[C@H](O)[C@@H](C)NC(=O)Nc1cc(CC)cc(-c2nnnn2C)c1 | Activity [5]: 62%; Activity [6]: 42%
7 | 6 nM | CCc1cc(NC(=O)N[C@H](C)[C@@H](O)CN(CCCc2ccc(F)cc2)C(C)=O)cc(-c2nnnn2C)c1 | 
8 | 0.5 nM | CCc1cc(NC(=O)N[C@H](C)[C@@H](O)CN(C)[C@@H](C)[C@@H](O)c2ccccc2)cc(-c2nnnn2C)c1 | 
9 | 3.2 nM | CCc1cc(NC(=O)N[C@H](C)[C@@H](O)CN(CCCc2ccc(F)cc2)C2CCCCC2)cc(-c2nnnn2C)c1 | Activity [4]: 58%; Activity [2]: 0%
10 | 0.4 nM | C[C@@H](NC(=O)Nc1cccc(-c2nnnn2C)c1)[C@@H](O)CN(C)CCCc1ccc(F)cc1 | Activity [4]: 0%
11 | 3.7 nM | Cn1nnnc1-c1cccc(NC(=O)N[C@@H]2CCCC[C@H]2CNCCCc2ccc(F)cc2)c1 | 
12 | 0.4 nM | C[C@@H](NC(=O)Nc1cccc(-c2nnnn2C)c1)[C@@H](O)CN(CCCc1ccc(F)cc1)CC1CC1 | Activity [2]: 44%
13 | 2.5 nM | CCc1cc(NC(=O)N[C@H](C)[C@@H](O)CN(CCCc2ccc(F)cc2)Cc2ccccc2)cc(-c2nnnn2C)c1 | Activity [5]: 61%; Activity [6]: 9%

More lines, now with the values behind:

Row | SMILES | IC50 [1] | also measured
14 | CCc1cc(NC(=O)N[C@H](C)[C@@H](O)CN(CCCc2ccc(F)cc2)CC2CC2)cc(-c2nnnn2C)c1 | 0.6 nM | 
15 | CCN(C[C@H](O)[C@@H](C)NC(=O)Nc1cccc(-c2nnnn2C)c1)[C@@H](C)[C@@H](O)Cc1ccc(F)cc1 | 19 nM | 
16 | CCc1cc(NC(=O)N[C@H](C)[C@@H](O)CN(CC)[C@@H](C)CCc2ccc(F)cc2)cc(-c2nnnn2C)c1 | 0.2 nM | 
17 | CCN(C[C@H](O)[C@@H](C)NC(=O)Nc1cccc(-c2nnnn2C)c1)[C@@H](C)[C@H](O)Cc1ccc(F)cc1 | 88 nM | 
18 | CCc1cc(NC(=O)N[C@H](C)[C@@H](O)CN(CC)[C@@H](C)[C@H](O)Cc2ccc(F)cc2)cc(-c2nnnn2C)c1 | 3.4 nM | 
19 | CCc1cc(NC(=O)N[C@H](C)[C@@H](O)CN(CCCc2ccc(F)cc2)CC(F)(F)F)cc(-c2nnnn2C)c1 | 9 nM | 
20 | C[C@@H](NC(=O)Nc1cccc(-c2nnnn2C)c1)[C@@H](O)CN(C)[C@@H](C)[C@@H](O)c1ccccc1 | 0.4 nM | Activity [4]: 67%
21 | C[C@H]([C@H](O)c1ccccc1)N(C)C[C@H](O)[C@@H](C)NC(=O)Nc1cccc(-c2nnnn2C)c1 | 577 nM | 
22 | CCc1cc(NC(=O)N[C@H](C)[C@@H](O)CN(CCCc2ccc(F)cc2)C2CC2)cc(-c2nnnn2C)c1 | 0.6 nM | 
23 | CN(CCCc1ccc(F)cc1)C[C@@H]1CCCC[C@H]1NC(=O)Nc1cccc(-c2nnnn2C)c1 | 0.6 nM | 
24 | Cn1nnnc1-c1cccc(NC(=O)N[C@@H]2CCCC[C@H]2CN(CCCc2ccc(F)cc2)CC(F)(F)F)c1 | 60 nM | 
25 | C[C@@H](NC(=O)Nc1cccc(-c2nnnn2C)c1)[C@@H](O)CN(C)[C@@H](C)[C@H](O)c1ccccc1 | 5.7 nM | 
26 | C[C@@H](NC(=O)Nc1cccc(-c2nnnn2C)c1)[C@@H](O)CN(CCCc1ccc(F)cc1)C1CC1 | 0.4 nM | 
27 | CCc1cc(NC(=O)N[C@H](C)[C@@H](O)CN(CC)CCCc2ccc(F)cc2)cc(-c2nnnn2C)c1 (stereo in doubt; 5Et) |  | IC50 ([1]; cho): 0.4 nM
28 | CCc1cc(NC(=O)N[C@H](C)[C@@H](O)CN(CCCc2ccc(F)cc2)CC23CC4CC(CC(C4)C2)C3)cc(-c2nnnn2C)c1 | 211 nM | 
29 | CCN(CCCc1ccc(F)cc1)C[C@H](O)[C@@H](C)NC(=O)Nc1cccc(-c2nnnn2C)c1 | 0.2 nM | Activity [5]: 34%
30 | CCc1cc(NC(=O)N[C@H](C)[C@@H](O)CN(C)CCCc2ccc(F)cc2)cc(-c2nnnn2C)c1 | 0.3 nM | 
31 | C[C@H]([C@@H](O)c1ccccc1)N(C)C[C@H](O)[C@@H](C)NC(=O)Nc1cccc(-c2nnnn2C)c1 | 238 nM | 
32 | CCc1cc(NC(=O)N[C@H](C)[C@@H](O)CN(CC)[C@@H](C)[C@@H](O)Cc2ccc(F)cc2)cc(-c2nnnn2C)c1 | 1.2 nM | 
33 | C[C@@H](NC(=O)Nc1cccc(-c2nnnn2C)c1)[C@@H](O)CN(CCCc1ccc(F)cc1)CC12CC3CC(CC(C3)C1)C2 | 421 nM | 
34 | CCc1cc(NC(=O)N[C@H](C)[C@@H](O)CN(CCCc2ccc(F)cc2)S(C)(=O)=O)cc(-c2nnnn2C)c1 | 21.6 nM | 
35 | CCc1cc(NC(=O)N[C@H](C)[C@@H](O)CN2CCC[C@@H](Cc3ccc(F)cc3)C2)cc(-c2nnnn2C)c1 | 1.8 nM | 
36 | CCc1cc(NC(=O)N[C@H](C)[C@@H](O)CNCCCc2ccc(F)cc2)cc(-c2nnnn2C)c1 | 0.3 nM | Activity [4]: 55%; Activity [2]: 42%
37 | CCN(C[C@H](O)[C@@H](C)NC(=O)Nc1cccc(-c2nnnn2C)c1)[C@@H](C)CCc1ccc(F)cc1 | 2.5 nM | 
